Data taken from US20230337677A1, “ARYL AND PYRIDYL AMIDE PESTICIDES AND COMPOSITIONS THEREOF” (University of Florida Research Foundation, Incorporated, priority 2019, published 2023).
Counter-ions that a name gives are not always drawn.

Columns and labels:
[1] = system: Aedes aegypti mosquitoes, insecticide-susceptible Orlando strain; format: in vivo; conditions: for 1 h % Repellency, 100 μg/cm^2: screened at 100 μg/cm^2, strain not given; for vapor repellency / mortality, statement in words (Example 8): structure-activity analysis of Table 2
Experimental: The tubes as shown were held horizontally on the bench.
For assessing behavioral repellency (FIG. 1), Aedes aegypti mosquitoes were used from the insecticide-susceptible Orlando strain and the pyrethroid-resistant Puerto Rico strain. Sixteen female mosquitoes were transferred to a glass tube (12.5 cm long, 2.5 cm outer diameter) with the ends covered with netting. Each compound was dissolved in 1 mL of acetone and serial dilutions ranging from 30-0.01 μg/ml were made. Circular filter papers (5 cm^2) were saturated with 50 μL of each concentration and allowed 10 min for solvent evaporation. The filter papers were then placed in clear conical polypropylene caps and fixed to the end of the glass tubes. The netting prevented mosquito contact with the filter paper. The tubes were then aligned with a mark denoting the midline and the proportion of mosquitoes on the chemically treated side was scored for up to 60 min. At the end of the test, the tube was placed in a cage and the ability of the mosquitoes to fly out of the tube was assessed for 30 min. […] This post-test evaluated whether any non-responding mosquitoes (not repelled) resulted from intoxication or disorientation from the test chemical. For assessment of lethality, insects were held for 24 hr under constant exposure in glass tubes having treated filter papers.
Compounds were first screened at 100 μg/cm^2 for repellency and 24 h mortality.

[2] = system: Aedes aegypti strain Orlando (sensitive); assay: Topical toxicity (24 hour mortality), Ae. aegypti Orlando; format: in vivo; conditions: topical application, 24 h mortality, female adults, susceptible Orlando strain
Experimental: The Aedes aegypti strains Orlando (sensitive) as well as the Puerto Rico (PR, resistant to permethrin) were used. The Anopheles gambiae (G3 sensitive strain, as well as Akron kdr (Akdr) strain, resistant to pyrethroids were also assessed. The larvae were provided by the USDA, Gainesville Fl, and raised in a pan with tap water maintained at 28° C. Larvae were fed a ground liver and yeast mixture, and pupae were placed in emergence cages. Adults were held at 28° C. and provided with cotton balls soaked in 10% sugar water for rearing and for all bioassays.
Female adults from 3 to 6 days were used for the experiments. The drug was dissolved in ethanol and then applied with a micro-applicator on the thorax, between the legs: 200 nL of drug per female mosquito, with different concentrations of the drug; 10 mosquitos were treated together per concentration per replicate, and put together in a small container with free access to sweet water. Mortality, i.e. no visible movement, was assessed 24 hours after treatment. Every compound was assessed on at least 3 different cohorts of mosquitoes, and the LD50 values and slopes were determined with Probit analysis, corrected with Abbott's formula.

Structure (SMILES) | 1 h % Repellency, 100 μg/cm^2 ([1]; 1 h) | vapor repellency / mortality, statement in words (Example 8) [1] | also measured
O=C(NCC(F)(F)F)c1cc(F)c(F)c(F)c1 [GMR173] | 44% | some repellency and mortality | 
O=C(Nc1cc(Cl)nc(Cl)c1)C(C(F)(F)F)C(F)(F)F [GMR174] |  |  | Ae. aegypti OR LD50 [2]: 500 ng/mg
O=C(CSC(F)(F)F)Nc1cc(F)c(F)c(F)c1 [GMR177] | 30% | poor activity | Ae. aegypti OR LD50 [2]: 220 ng/mg
CC1(C)[C@H](C=C(Cl)Cl)[C@H]1C(=O)Nc1cc(F)cc(F)c1 [GMR179] | 30% |  | 
O=C(Nc1ccccc1C(F)(F)F)C(F)(F)F [MTFI-1-4C] | −6% |  | 
O=C(CCl)Nc1cc(C(F)(F)F)cc(C(F)(F)F)c1 [MTFI-3-1F] | 88% |  | 
C=CCCCC(=O)Nc1ccccc1C(F)(F)F [MTFI-3-2E] | 76% |  | 
O=C(CCC1CCCCC1)Nc1cccc(C(F)(F)F)c1 [MTFI-3-3A] | 16% |  | 
CC(=O)Nc1ccc(C(F)(F)F)cc1 [MTFI-3-4A] | 8% |  | 
O=C(CCC1CCCCC1)Nc1ccc(C(F)(F)F)cc1 [MTFI-3-4B] | 8% |  | 
O=C(CCC1CCCCC1)Nc1c(Cl)cc(C(F)(F)F)cc1Cl [MTFI-3-5A] | 0% |  | 
O=C(Nc1cc(C(F)(F)F)cc(C(F)(F)F)c1)C(F)(F)C(F)(F)C(F)(F)F [MTFI-4-2D] | 12% |  | 
O=C(NCC(F)(F)F)Nc1c(Cl)cc(C(F)(F)F)cc1Cl [MTFI-4-FPL-A] | 0% | reduced repellency | 
O=C(Nc1ccc(C(F)(F)F)cc1)c1cc(Cl)cc(Cl)c1 [MTFI-4-NA-1C] | 8% | poor results | 
O=C(CCl)Nc1cccc(F)c1 [MTFI-5-1A] | 6% |  | 
COC(=O)c1ccccc1N(C)C(F)(C(F)(F)F)C(F)(F)F [MTFI-5-11A] |  | moderate repellency in some instances | 
COC(=O)c1cc(F)c(F)cc1N [MTFI-5-12A] | 92% | moderate repellency in some instances | 1 h Repellency EC50, μg/cm^2 ([1]; 1 h, (OR)): 23 μg/cm^2
COC(=O)c1cccc(C(F)(F)F)c1N [MTFI-5-12B] |  | moderate repellency in some instances | 
COC(=O)c1cc(C)c(C(F)(F)F)cc1N [MTFI-5-12C] | 30% | moderate repellency in some instances | 
COC(=O)c1cc(C(F)(F)F)ccc1N [MTFI-5-12D] | 84% | moderate repellency in some instances | 
COC(=O)c1ccccc1C(F)(F)F [MTFI-5-13A] | 6% |  | 
CCOC(=O)c1ccccc1C(F)(F)F [MTFI-5-13B] | 12% |  | 
COC(=O)c1ccccc1O [MTFI-5-14A] | 70% | moderate repellency and toxicity | 
CCOC(=O)c1ccccc1O [MTFI-5-14B] | 30% | moderate repellency and toxicity | 
CCCCOC(=O)c1ccccc1O [MTFI-5-14C] |  |  | knockdown in 1 hr repellency test (XXkd = number of insects incapacitated out of 16 females) ([1]; in vivo): 8
O=C(CCl)Nc1cccc(O)c1 [MTFI-5-15A] | 36% |  | 
COC(=O)c1cccc(C(F)(F)F)c1N [MTFI-5-512B] | 42% |  | 
CC1(C)C(C=C(Cl)Cl)C1C(=O)O (stereo not drawn) [TFA, 1R-transfluthrin acid, reference compound] |  |  | repellency of TFA alone ([1]; alone): inactive alone
